Assay [1] has as its target von Hippel-Lindau disease tumor suppressor/Androgen receptor (Homo sapiens) (UniProt P10275+P40337). The experiment in a line: PROTAC activity at VHL/AR in human VCaP cells assessed as maximum degradation at 5 nM relative to control. Type of assay: cell-based.
Assay [2] deals with Protein cereblon/Focal adhesion kinase 1 (Homo sapiens) (UniProt Q05397+Q96SW2). The experiment in a line: Protac activity at CRBN E3 ligase/FAK (unknown origin) assessed as […] FAK degradation at 10 nM relative to control. Also on record: scale not given: the % may be the effect or the level left. It counts as protein assay.
Chain of Protein cereblon/Focal adhesion kinase 1 (Homo sapiens) (Q05397 2-1052 limits assumed): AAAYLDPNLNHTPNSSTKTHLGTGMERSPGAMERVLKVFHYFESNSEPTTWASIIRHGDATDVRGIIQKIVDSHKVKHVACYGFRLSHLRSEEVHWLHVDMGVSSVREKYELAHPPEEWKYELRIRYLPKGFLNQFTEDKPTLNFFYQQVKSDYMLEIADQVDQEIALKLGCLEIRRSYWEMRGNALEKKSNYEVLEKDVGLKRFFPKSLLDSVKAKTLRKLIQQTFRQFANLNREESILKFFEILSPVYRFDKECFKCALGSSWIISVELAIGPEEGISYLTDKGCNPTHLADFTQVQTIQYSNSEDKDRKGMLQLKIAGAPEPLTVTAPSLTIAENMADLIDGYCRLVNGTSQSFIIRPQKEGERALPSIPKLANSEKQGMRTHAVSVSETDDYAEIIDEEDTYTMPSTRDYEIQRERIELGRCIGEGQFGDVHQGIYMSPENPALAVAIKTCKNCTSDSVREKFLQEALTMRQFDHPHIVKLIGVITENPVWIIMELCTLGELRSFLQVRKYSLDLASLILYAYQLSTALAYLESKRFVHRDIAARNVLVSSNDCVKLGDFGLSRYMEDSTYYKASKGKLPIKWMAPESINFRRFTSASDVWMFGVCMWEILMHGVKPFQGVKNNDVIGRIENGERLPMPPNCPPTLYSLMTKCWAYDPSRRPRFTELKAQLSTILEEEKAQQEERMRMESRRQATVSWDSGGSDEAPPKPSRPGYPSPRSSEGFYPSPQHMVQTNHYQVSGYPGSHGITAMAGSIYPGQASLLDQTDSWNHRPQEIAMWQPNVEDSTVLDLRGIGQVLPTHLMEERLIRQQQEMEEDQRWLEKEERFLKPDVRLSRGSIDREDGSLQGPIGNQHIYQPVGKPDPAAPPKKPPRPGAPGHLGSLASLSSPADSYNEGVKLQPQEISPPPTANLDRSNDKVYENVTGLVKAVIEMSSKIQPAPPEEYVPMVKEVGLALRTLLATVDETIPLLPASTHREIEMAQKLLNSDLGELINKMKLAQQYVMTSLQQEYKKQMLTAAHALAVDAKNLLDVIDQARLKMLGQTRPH
Chain of Protein cereblon/Focal adhesion kinase 1 (Homo sapiens) (Q96SW2 whole entry partner): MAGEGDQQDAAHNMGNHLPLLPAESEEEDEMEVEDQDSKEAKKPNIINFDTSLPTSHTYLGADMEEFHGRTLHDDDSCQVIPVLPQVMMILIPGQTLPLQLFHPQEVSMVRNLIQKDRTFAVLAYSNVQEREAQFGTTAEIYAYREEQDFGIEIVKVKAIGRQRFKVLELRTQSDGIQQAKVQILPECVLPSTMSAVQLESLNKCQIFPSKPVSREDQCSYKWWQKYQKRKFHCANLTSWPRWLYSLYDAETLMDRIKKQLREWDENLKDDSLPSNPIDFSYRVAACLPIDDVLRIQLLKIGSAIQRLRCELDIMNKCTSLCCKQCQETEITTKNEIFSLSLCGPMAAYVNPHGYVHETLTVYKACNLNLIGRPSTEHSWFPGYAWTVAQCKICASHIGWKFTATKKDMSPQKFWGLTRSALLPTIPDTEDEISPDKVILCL
Assay [3] has as its target Protein cereblon/Tyrosine-protein kinase BTK (Homo sapiens, UniProt Q06187+Q96SW2). As to the kind of experiment: PROTAC activity at CRBN/BTK in human TMD8 cells assessed as induction of BTK degradation incubated for 24 hrs by immunoblotting analysis. It counts as cell-based. (In general: A western blot detects proteins with antibodies after separation by electrophoresis.)

For assay [4], the target named is T1, Protein cereblon/Estrogen receptor (Homo sapiens, UniProt P03372+Q96SW2). As to the kind of experiment: Protac activity at CRBN E3 ligase/Estrogen receptor in human T47D cells assessed maximum degradation at 1.5 uM measured upto 24 hrs by ELISA method relative to control. It counts as cell-based. On the technique in general: In an ELISA, binding on a coated surface is turned into a signal by an enzyme label.
Target sequence in this assay (P03372 whole entry, looked up): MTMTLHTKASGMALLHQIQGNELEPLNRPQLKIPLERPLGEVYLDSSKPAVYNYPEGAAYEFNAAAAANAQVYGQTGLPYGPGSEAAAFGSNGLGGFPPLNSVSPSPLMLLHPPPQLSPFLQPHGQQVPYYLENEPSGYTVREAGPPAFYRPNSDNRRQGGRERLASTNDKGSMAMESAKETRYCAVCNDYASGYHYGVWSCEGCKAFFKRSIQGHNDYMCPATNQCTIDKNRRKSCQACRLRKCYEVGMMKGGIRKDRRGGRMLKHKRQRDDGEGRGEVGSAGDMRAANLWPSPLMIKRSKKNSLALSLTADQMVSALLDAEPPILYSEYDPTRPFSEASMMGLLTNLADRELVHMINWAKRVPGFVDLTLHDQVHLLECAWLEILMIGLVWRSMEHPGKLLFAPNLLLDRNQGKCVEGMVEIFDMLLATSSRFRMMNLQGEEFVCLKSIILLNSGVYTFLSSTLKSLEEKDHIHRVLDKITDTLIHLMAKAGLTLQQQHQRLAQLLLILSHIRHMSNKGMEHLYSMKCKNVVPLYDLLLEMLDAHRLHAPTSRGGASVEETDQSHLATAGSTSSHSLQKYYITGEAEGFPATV
Target sequence in this assay (Q96SW2 whole entry, looked up): as the sequence (Q96SW2 whole entry partner) above

Assay [5] addresses T1, Protein cereblon/Estrogen receptor. The experiment in a line: Protac activity at CRBN E3 ligase/Estrogen receptor in human MCF7 cells assessed maximum degradation at 1.5 uM measured upto 24 hrs by ELISA method relative to control. Type of assay: cell-based.
Target sequence in this assay (P03372 whole entry, looked up): as the sequence (P03372 whole entry, looked up) above
Target sequence in this assay (Q96SW2 whole entry, looked up): as the sequence (Q96SW2 whole entry partner) above
Assay [6] shares this target. The experiment in a line: Protac activity at CRBN E3 ligase/Estrogen receptor in human MCF7 cells assessed as induction of estrogen receptor degradation measured upto 24 hrs by ELISA method. It counts as cell-based.
Target sequence in this assay (P03372 whole entry): as the sequence (P03372 whole entry, looked up) above
Target sequence in this assay (Q96SW2 whole entry): as the sequence (Q96SW2 whole entry partner) above
Assay [7] shares this target. The experiment in a line: Protac activity at CRBN E3 ligase/Estrogen receptor in human T47D cells assessed as induction of estrogen receptor degradation measured upto 24 hrs by ELISA method. Type of assay: cell-based.
Target sequence in this assay (P03372 whole entry): as the sequence (P03372 whole entry, looked up) above
Target sequence in this assay (Q96SW2 whole entry): as the sequence (Q96SW2 whole entry partner) above

Structures are written as SMILES.

The results in this text go back to ChEMBL document CHEMBL5331092, “PROTACS: A technology with a gold rush-like atmosphere” (Eur J Med Chem, 2023).

Chain of Protein cereblon/Tyrosine-protein kinase BTK (Q06187 whole entry): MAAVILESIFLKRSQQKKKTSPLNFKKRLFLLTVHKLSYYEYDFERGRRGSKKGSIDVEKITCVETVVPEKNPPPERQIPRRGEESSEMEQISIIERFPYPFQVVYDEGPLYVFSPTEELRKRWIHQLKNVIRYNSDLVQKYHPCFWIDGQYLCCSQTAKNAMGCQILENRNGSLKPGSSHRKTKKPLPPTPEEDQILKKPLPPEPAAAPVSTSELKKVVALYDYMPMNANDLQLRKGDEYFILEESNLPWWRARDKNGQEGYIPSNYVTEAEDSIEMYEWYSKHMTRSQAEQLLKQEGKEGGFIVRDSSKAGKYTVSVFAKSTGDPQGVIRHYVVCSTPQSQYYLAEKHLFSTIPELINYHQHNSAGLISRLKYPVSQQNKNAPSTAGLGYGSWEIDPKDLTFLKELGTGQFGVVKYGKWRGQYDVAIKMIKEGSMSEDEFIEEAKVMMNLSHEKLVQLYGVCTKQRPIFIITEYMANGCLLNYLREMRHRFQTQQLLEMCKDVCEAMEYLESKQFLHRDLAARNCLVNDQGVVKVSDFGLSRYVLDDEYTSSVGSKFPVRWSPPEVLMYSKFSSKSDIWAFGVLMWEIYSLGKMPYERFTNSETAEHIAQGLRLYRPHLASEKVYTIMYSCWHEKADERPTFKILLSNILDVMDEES
Chain of Protein cereblon/Tyrosine-protein kinase BTK (Q96SW2 whole entry): as the sequence (Q96SW2 whole entry partner) above
Chain of von Hippel-Lindau disease tumor suppressor/Androgen receptor (Homo sapiens) (P10275 whole entry, looked up): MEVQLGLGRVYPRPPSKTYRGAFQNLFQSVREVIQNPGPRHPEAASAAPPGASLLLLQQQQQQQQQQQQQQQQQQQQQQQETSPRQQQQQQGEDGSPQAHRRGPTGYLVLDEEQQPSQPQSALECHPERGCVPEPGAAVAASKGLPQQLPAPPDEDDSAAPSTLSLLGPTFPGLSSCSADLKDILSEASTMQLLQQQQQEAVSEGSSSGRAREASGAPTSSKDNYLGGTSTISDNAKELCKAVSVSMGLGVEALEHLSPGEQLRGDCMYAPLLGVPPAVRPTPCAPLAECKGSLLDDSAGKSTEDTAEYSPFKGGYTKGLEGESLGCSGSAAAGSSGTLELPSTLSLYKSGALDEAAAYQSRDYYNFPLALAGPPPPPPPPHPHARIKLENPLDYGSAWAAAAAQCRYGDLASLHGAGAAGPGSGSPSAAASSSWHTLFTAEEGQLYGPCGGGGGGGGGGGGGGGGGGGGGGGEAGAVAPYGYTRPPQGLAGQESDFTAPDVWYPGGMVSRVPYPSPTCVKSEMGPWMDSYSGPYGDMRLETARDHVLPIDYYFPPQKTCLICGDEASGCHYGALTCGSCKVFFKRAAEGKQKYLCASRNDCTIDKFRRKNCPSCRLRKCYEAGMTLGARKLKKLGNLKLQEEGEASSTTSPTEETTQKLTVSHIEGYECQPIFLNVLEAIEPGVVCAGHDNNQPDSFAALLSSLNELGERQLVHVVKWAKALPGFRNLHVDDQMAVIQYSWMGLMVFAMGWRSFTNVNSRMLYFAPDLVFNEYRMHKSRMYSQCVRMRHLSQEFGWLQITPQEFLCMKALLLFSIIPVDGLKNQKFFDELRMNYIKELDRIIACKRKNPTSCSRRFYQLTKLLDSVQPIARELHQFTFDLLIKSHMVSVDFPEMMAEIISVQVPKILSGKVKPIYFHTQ
Chain of von Hippel-Lindau disease tumor suppressor/Androgen receptor (Homo sapiens) (P40337 whole entry, looked up): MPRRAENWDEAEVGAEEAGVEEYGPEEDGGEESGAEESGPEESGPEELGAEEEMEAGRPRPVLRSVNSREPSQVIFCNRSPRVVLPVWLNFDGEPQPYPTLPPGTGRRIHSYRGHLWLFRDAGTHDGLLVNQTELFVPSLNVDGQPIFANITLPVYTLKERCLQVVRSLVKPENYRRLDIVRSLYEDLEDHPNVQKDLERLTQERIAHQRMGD

For orientation: Emax means the greatest response seen or fitted, relative to the assay's reference. As to `Cc1ncsc1-c1ccc(CNC(=O)C2C[C@@H](O)CN2C(=O)C(NC(=O)COCCCCOc2ccc(-c3ccc(N4C(=S)N(c5ccc(C#N)c(C(F)(F)F)c5)C(=O)C4(C)C)cc3)cc2)C(C)(C)C)cc1` (some centres undefined), the maximum response (Emax) in assay [1] came out at 95%. On to `CN(c1ncccc1CNc1nc(Nc2ccc(NC(=O)c3cn(CCOCCOCCNc4cccc5c4C(=O)N(C4CCC(=O)NC4=O)C5=O)nn3)cc2)ncc1C(F)(F)F)S(C)(=O)=O` (centres undefined), for which, in assay [2], the Activity amounted to 90%. In general, EC50 refers to the concentration that produces a half-maximal response. `Cc1cccc(C)c1Nc1nn(C)c2nc(Nc3ccc4c(c3)CN(CC3CCN(c5ccc6c(c5)C(=O)N(C5CCC(=O)NC5=O)C6=O)CC3)CC4)ncc12` (centres undefined): in assay [3], the half-maximal effective concentration (EC50) came to 4 nM.

In the case of `Cc1ncsc1-c1ccc([C@H](C)NC(=O)C2C[C@@H](O)CN2C(=O)[C@@H](NC(=O)CCCCOc2ccc(/C=N/NC(=O)c3ccc(C(=O)c4c(-c5ccc(O)cc5)sc5cc(O)ccc45)cc3)cc2)C(C)(C)C)cc1` (some centres undefined), the maximal response (Emax) in assay [4] and in assay [5] was above 95% each time. The EC50 in assay [6] and in assay [7] was 10 nM each time. `Cc1ncsc1-c1ccc([C@H](C)NC(=O)C2C[C@@H](O)CN2C(=O)[C@@H](NC(=O)CCCCOc2ccc(CCNC(=O)c3ccc(C(=O)c4c(-c5ccc(O)cc5)sc5cc(O)ccc45)cc3)cc2)C(C)(C)C)cc1` (some centres undefined) showed an Emax in assay [5] of 98%. For the same molecule, the EC50 in assay [6] is 1.1 nM.
